Columns and labels:
Format in all cases: physicochemical
[1] = Stability tests of solid material (SEM, XRD, HPLC); conditions: materials prepared according to the disclosure; up to T30; crystallinity confirmed by XRD
Procedure: Solid material was weighted in separate vials (approx. 150 mg of material in each) and transferred to stability chambers. Three conditions were applied: ambient conditions (material in closed vial at RT), 25° C./65% RH and 40° C./75% RH. Material was analyzed at T0 as freshly prepared, T7 ([…]), T14 ([…]) and T30 (30 d) after the initiation of stability studies. SEM, XRD and dissolution/permeability studies were used to evaluate the crystallinity, particle size/morphology and performance of the material.

[2] = SEM of crystallized suspensions and dried products (crystal size grade, particle size); design: key: 5 = nanocrystals; 1 = large crystals
Procedure: SEM images were captured using the Zeiss Sigma 300 VP SEM instruments. Samples were dispersed into water and filtered with 0.1 μm filter. Filters were dried, transferred to SEM sample holders, and coated with a 5 nm thick layer of platinum. Amorphous API nanoparticles (budesonide, ezetimibe, ceritinib, and apalutamide) were added as dry powders to aqueous polymer solutions. The mixtures were either • (i) mixed with a magnetic stirrer and ultrasonicated until API was completely surrounded by water (wetted). The stirring was continued for 16-24 h at ambient temperature or • (ii) blended with a metal spatula and allowed to stay at room temperature for 18-24 h. The suspensions formed were analyzed after 18-24 h. SEM and XRD samples were prepared as described above. Suspension comprising nanosized APIs prepared as shown above were dried in a vacuum desiccator overnight. The solid materials were grounded to produce powders. The powders were analyzed on XRD and SEM. The powders comprising nanosized APIs were used in the stability, permeability, and dissolution tests as described above.

[3] = Crystallization of amorphous nanosized API in aqueous polymer solution, polymorph/crystallinity by XRD; design: key to Polymorph: bulk = same as the API before conversion to amorphous nanoparticles
Procedure: XRPD measurements were carried out using the Malvern PANalytical Empyrean X-ray diffractometer equipped with a Cu Kα (1.54 Å) source, MultiCore optics and a solid-state PIXcel3D detector. By using Kapton tape the samples were attached onto aluminum or polycrystalline silicon sample holders. Dried slurries were measured without further sample preparation under Kapton tape and suspensions were filtered, dried, and filters were attached with double sided tape. The samples were measured in the reflection geometry in a spinning measurement stage. The measurement range was 5-40 (°2θ). The step size and time per step values were varied depending on the counts per second obtained.
Determination of crystallization of API nanoparticles was evaluated via kinetic study of suspension. Accordingly, XRD measurement was done for suspension in different time points.
Amorphous API nanoparticles (budesonide, ezetimibe, ceritinib, and apalutamide) were added as dry powders to aqueous polymer solutions. The mixtures were either • (i) mixed with a magnetic stirrer and ultrasonicated until API was completely surrounded by water (wetted). The stirring was continued for 16-24 h at ambient temperature or • (ii) blended with a metal spatula and allowed to stay at room temperature for 18-24 h.
The suspensions formed were analyzed after 18-24 h. SEM and XRD samples were prepared as described above.

[4] = Dissolution studies (Pion Rainbow, FaSSIF / SGF-FaSSIF); conditions: composition of the disclosure vs bulk ezetimibe; powders resuspended in aq. 1% PVPVA; FaSSIF and SGF-FaSSIF
Procedure: The dissolution properties were measured with a Pion Rainbow R2D instrument (Pion Inc UK Ltd, Forest Row, UK). The suspensions were prepared at concentration of 5 mg/mL in 1% PVPVA suspension vehicle loaded at 40 μg/mL (ezetimibe) or 30 μg/ml (apalutamide). Fasted simulated intestinal fluid (FaSSIF) media pH 6.5 was used for dissolution studies of Ezetimibe. Dissolution studies for Apalutamide was done in biphasic mode starting in Simulated gastric media (SGF) (0.025 M HCl pH 1.6) for 15 min. Thereafter, the content of the SGF was converted to FaSSIF medium pH 6.5 by addition of 10 mL of FaSSIF concentrate media. The temperature was set to 37° C. and stirring rate to 150 rpm. API concentrations were continuously monitored with a fiber optical UV-Vis probes path length. UV-Vis spectra were collected in 30-sec intervals using the Pion Rainbow Dynamic with either 10 mm tips for Ezetimibe or 5 mm tips for Apalutamide. The API concentration was calculated based on a standard curve using 2nd derivative data transformation (stock solution 5 mg/mL in ethanol of respective API) at a range of 293-320 nm wavelength for both Ezetimibe and Apalutamide).

[5] = HPMC 1 wt.-%, SLS 0.2 wt.-%, mAPI 25 mg/g
[6] = HPMC 1 wt.-%, no SLS, mAPI 25 mg/g
[7] = HPMC 2.5 wt.-%, SLS 0.2 wt.-%, mAPI 25 mg/g
[8] = HPMC 2.5 wt.-%, no SLS, mAPI 25 mg/g
[9] = HPMC 5 wt.-%, SLS 0.2 wt.-%, mAPI 25 mg/g
[10] = HPMC 5 wt.-%, no SLS, mAPI 25 mg/g
[11] = PVP K30 1 wt.-%, no SLS, mAPI 25 mg/g
[12] = PVP K30 2.5 wt.-%, no SLS, mAPI 25 mg/g
[13] = PVP K30 5 wt.-%, no SLS, mAPI 25 mg/g
[14] = PVPVA 1 wt.-%, SLS 0.2 wt.-%, mAPI 25 mg/g
[15] = PVPVA 1 wt.-%, no SLS, mAPI 25 mg/g polymer solution
[16] = PVPVA 2.5 wt.-%, SLS 0.2 wt.-%, mAPI 25 mg/g
[17] = PVPVA 2.5 wt.-%, no SLS, mAPI 25 mg/g
[18] = PVPVA 5 wt.-%, SLS 0.2 wt.-%, mAPI 25 mg/g
[19] = PVPVA 5 wt.-%, no SLS, mAPI 25 mg/g
[20] = PVPVA 15 wt.-%, no SLS, mAPI 150 mg/g
[21] = PVPVA 15 wt.-%, no SLS, mAPI 300 mg/g
[22] = PVPVA 20 wt.-%, no SLS, mAPI 100 mg/g
[23] = PVPVA 20 wt.-%, no SLS, mAPI 200 mg/g
[24] = PVPVA 20 wt.-%, no SLS, mAPI 400 mg/g
[25] = PVPVA 25 wt.-%, no SLS, mAPI 125 mg/g
[26] = PVPVA 25 wt.-%, no SLS, mAPI 250 mg/g
[27] = Poloxamer 407 1 wt.-%, no SLS, mAPI 25 mg/g
[28] = Poloxamer 407 2.5 wt.-%, no SLS, mAPI 25 mg/g
[29] = Poloxamer 407 5 wt.-%, no SLS, mAPI 25 mg/g

O=C1[C@H](CC[C@H](O)c2ccc(F)cc2)[C@@H](c2ccc(O)cc2)N1c1ccc(F)cc1 [Eze, ezetimibe]
Stability of nanocrystalline material over the stability study [1]: stable over the whole stability study
Grade (SEM, visual inspection) [2, 5]: 2
Grade (SEM, visual inspection) [2, 6]: 2
Grade (SEM, visual inspection) [2, 7]: 2
Grade (SEM, visual inspection) [2, 8]: 2
Grade (SEM, visual inspection) [2, 9]: 2
Grade (SEM, visual inspection) [2, 10]: 2
Grade (SEM, visual inspection) [2, 11]: 3
Grade (SEM, visual inspection) [2, 12]: 3
Grade (SEM, visual inspection) [2, 13]: 3
Grade (SEM, visual inspection) [2, 14]: 2
Grade (SEM, visual inspection) [2, 15]: 3
Grade (SEM, visual inspection) [2, 16]: 4
Grade (SEM, visual inspection) [2, 17]: 2
Grade (SEM, visual inspection) [2, 18]: 5
Grade (SEM, visual inspection) [2, 19]: 2
Grade (SEM, visual inspection) [2, 20]: 5
Grade (SEM, visual inspection) [2, 21]: 5
Grade (SEM, visual inspection) [2, 22]: 5
Grade (SEM, visual inspection) [2, 23]: 5
Grade (SEM, visual inspection) [2, 24]: 5
Grade (SEM, visual inspection) [2, 25]: 5
Grade (SEM, visual inspection) [2, 26]: 5
Grade (SEM, visual inspection) [2, 27]: 1
Grade (SEM, visual inspection) [2, 28]: 1
Grade (SEM, visual inspection) [2, 29]: 1
Polymorph [3, 5]: bulk
Polymorph [3, 6]: hydrate
Polymorph [3, 7]: amorphous
Polymorph [3, 8]: hydrate
Polymorph [3, 9]: amorphous
Polymorph [3, 10]: hydrate
Polymorph [3, 11]: bulk
Polymorph [3, 12]: bulk
Polymorph [3, 13]: bulk
Polymorph [3, 14]: bulk
Polymorph [3, 15]: bulk
Polymorph [3, 16]: bulk
Polymorph [3, 17]: bulk
Polymorph [3, 18]: hydrate
Polymorph [3, 19]: bulk
Polymorph [3, 20]: hydrate
Polymorph [3, 21]: hydrate
Polymorph [3, 22]: hydrate
Polymorph [3, 23]: hydrate
Polymorph [3, 24]: hydrate
Polymorph [3, 25]: hydrate
Polymorph [3, 26]: hydrate
Polymorph [3, 27]: bulk
Polymorph [3, 28]: bulk
Polymorph [3, 29]: bulk
time from contacting until crystal formation is observed in XRD diffractograms ([3]; suspension in 20 wt.-% aq. PVPVA, API:polymer ratio 1:1): > 9 h
dissolution versus bulk material [4]: dissolves significantly faster
